Converted amounts (≈) assume the structure as drawn.
test system: Mycobacterium tuberculosis; assay: Minimum inhibitory concentration against resistant Mycobacterium tuberculosis clinical isolates; N=9; Range=8-16; format: functional

| SMILES | MIC |
| --- | --- |
| NNC(=O)c1ccncc1 [ISONIAZID] | 16 µg/mL (≈ 117 µM) |

test system: Mycobacterium tuberculosis; assay: Minimum inhibitory concentration against resistant Mycobacterium tuberculosis clinical isolates; N=9; Range 2-4; format: functional

| SMILES | MIC |
| --- | --- |
| O=C(CN(/N=C/c1ccc(Cl)cc1Cl)C(=O)c1ccncc1)N1CCN(Cc2ccc3c(c2)OCO3)CC1 | 4 µg/mL (≈ 7.21 µM) |

test system: Mycobacterium tuberculosis; assay: Minimum inhibitory concentration against resistant Mycobacterium tuberculosis clinical isolates; N=9; range=4-8; format: functional

| SMILES | MIC |
| --- | --- |
| O=C(CN(/N=C/c1cccc(Cl)c1)C(=O)c1ccncc1)N1CCN(Cc2ccc3c(c2)OCO3)CC1 | 8 µg/mL (≈ 15.4 µM) |
| O=C(CN(/N=C/c1ccc(Cl)cc1)C(=O)c1ccncc1)N1CCN(Cc2ccc3c(c2)OCO3)CC1 | 8 µg/mL (≈ 15.4 µM) |

test system: Mycobacterium tuberculosis; assay: Minimum inhibitory concentration against resistant Mycobacterium tuberculosis clinical isolates; N=9; format: functional

| SMILES | MIC |
| --- | --- |
| O=C(CN(/N=C/c1cccc(Cl)c1)C(=O)c1ccncc1)N1CCN(c2cccc(Cl)c2)CC1 | > 16 µg/mL |
| O=C(CN(/N=C/c1ccccc1Cl)C(=O)c1ccncc1)N1CCN(c2ccccc2)CC1 | > 16 µg/mL |
| O=C(CN(/N=C/c1cccc(Cl)c1)C(=O)c1ccncc1)N1CCN(c2ccc(F)cc2)CC1 | > 16 µg/mL |
| COc1ccccc1N1CCN(C(=O)CN(/N=C/c2ccc(Cl)cc2)C(=O)c2ccncc2)CC1 | > 16 µg/mL |
| COc1ccccc1N1CCN(C(=O)CN(/N=C/c2cccc(Cl)c2)C(=O)c2ccncc2)CC1 | > 16 µg/mL |
| Cc1cccc(N2CCN(C(=O)CN(/N=C/c3ccccc3Cl)C(=O)c3ccncc3)CC2)c1 | > 16 µg/mL |
| O=C(CN(/N=C/c1ccc(Cl)cc1Cl)C(=O)c1ccncc1)N1CCN(c2ccc(Cl)cc2)CC1 | 16 µg/mL (≈ 30.1 µM) |
| O=C(CN(/N=C/c1ccccc1Cl)C(=O)c1ccncc1)N1CCN(c2ccc(F)cc2)CC1 | > 16 µg/mL |
| O=C(CN(/N=C/c1ccccc1Cl)C(=O)c1ccncc1)N1CCN(c2cccc(Cl)c2Cl)CC1 | > 16 µg/mL |
| O=C(CN(/N=C/c1ccccc1Cl)C(=O)c1ccncc1)N1CCN(c2cccc(Cl)c2)CC1 | > 16 µg/mL |
| O=C(CN(/N=C/c1ccc(Cl)cc1Cl)C(=O)c1ccncc1)N1CCN(c2ccccc2)CC1 | > 16 µg/mL |
| COc1ccccc1N1CCN(C(=O)CN(/N=C/c2ccccc2Cl)C(=O)c2ccncc2)CC1 | > 16 µg/mL |
| Cc1cccc(N2CCN(C(=O)CN(/N=C/c3ccc(Cl)cc3Cl)C(=O)c3ccncc3)CC2)c1 | > 16 µg/mL |
| COc1ccccc1N1CCN(C(=O)CN(/N=C/c2ccc(Cl)cc2Cl)C(=O)c2ccncc2)CC1 | > 16 µg/mL |
| O=C(CN(/N=C/c1ccccc1Cl)C(=O)c1ccncc1)N1CCN(c2ccc(Cl)cc2)CC1 | > 16 µg/mL |
| O=C(CN(/N=C/c1cccc(Cl)c1)C(=O)c1ccncc1)N1CCN(c2ccccc2)CC1 | > 16 µg/mL |
| O=C(CN(/N=C/c1ccc(Cl)cc1)C(=O)c1ccncc1)N1CCN(c2ccc([N+](=O)[O-])cc2)CC1 | > 16 µg/mL |
| O=C(CN(/N=C/c1ccccc1Cl)C(=O)c1ccncc1)N1CCN(c2cccc(C(F)(F)F)c2)CC1 | > 16 µg/mL |
| O=C(CN(/N=C/c1ccc(Cl)cc1)C(=O)c1ccncc1)N1CCN(c2ccc(F)cc2)CC1 | > 16 µg/mL |
| O=C(CN(/N=C/c1ccc(Cl)cc1Cl)C(=O)c1ccncc1)N1CCN(c2ccc([N+](=O)[O-])cc2)CC1 | > 16 µg/mL |
| O=C(CN(/N=C/c1ccc(Cl)cc1Cl)C(=O)c1ccncc1)N1CCN(c2cccc(C(F)(F)F)c2)CC1 | > 16 µg/mL |
| O=C(CN(/N=C/c1ccc(Cl)cc1)C(=O)c1ccncc1)N1CCN(c2ccc(Cl)cc2)CC1 | > 16 µg/mL |
| O=C(CN(/N=C/c1ccccc1Cl)C(=O)c1ccncc1)N1CCN(c2ccc([N+](=O)[O-])cc2)CC1 | > 16 µg/mL |
| O=C(CN(/N=C/c1ccc(Cl)cc1Cl)C(=O)c1ccncc1)N1CCN(c2cccc(Cl)c2)CC1 | > 16 µg/mL |
| O=C(CN(/N=C/c1cccc(Cl)c1)C(=O)c1ccncc1)N1CCN(c2ccc(Cl)cc2)CC1 | > 16 µg/mL |
| O=C(CN(/N=C/c1ccc(Cl)cc1Cl)C(=O)c1ccncc1)N1CCN(c2ccc(F)cc2)CC1 | > 16 µg/mL |
| Cc1cccc(N2CCN(C(=O)CN(/N=C/c3cccc(Cl)c3)C(=O)c3ccncc3)CC2)c1 | > 16 µg/mL |
| O=C(CN(/N=C/c1cccc(Cl)c1)C(=O)c1ccncc1)N1CCN(c2ccc([N+](=O)[O-])cc2)CC1 | > 16 µg/mL |

test system: Mycobacterium tuberculosis; assay: Minimum inhibitory concentration against resistant Mycobacterium tuberculosis clinical isolates; N=9; range=8-16; format: functional

| SMILES | MIC |
| --- | --- |
| O=C(CN(/N=C/c1ccccc1Cl)C(=O)c1ccncc1)N1CCN(Cc2ccc3c(c2)OCO3)CC1 | 16 µg/mL (≈ 30.8 µM) |

test system: Mycobacterium tuberculosis; assay: Minimum inhibitory concentration against resistant Mycobacterium tuberculosis clinical isolates; N=9; Range=2-16; format: functional

| SMILES | MIC |
| --- | --- |
| CO[C@H]1/C=C/O[C@@]2(C)Oc3c(C)c(O)c4c(O)c(c(/C=N/N5CCN(C)CC5)c(O)c4c3C2=O)NC(=O)/C(C)=C\C=C\[C@H](C)[C@H](O)[C@@H](C)[C@@H](O)[C@@H](C)[C@H](OC(C)=O)[C@@H]1C [RIFAMPIN] | 16 µg/mL (≈ 19.4 µM) |

From ChEMBL document CHEMBL1142033, “Synthesis of isonicotinic acid N'-arylidene-N-[2-oxo-2-(4-aryl-piperazin-1-yl)-ethyl]-hydrazides as antituberculosis agents” (2005)
